Assay results taken from patent publication US7524964B2, “Tetrahydrothiopyrano pyrazole cannabinoid modulators” (Janssen Pharmaceutica NV, priority 2005, dated 2009).
“And” between values parts separate entries of the source, which are not always exact repeats. Equal entries are not always repeated.

Key:
human CB-2 receptor = molecular target: T1, human CB-2 receptor (Homo sapiens, UniProt P34972); experiment: Binding assay, cannabinoid CB2 receptor ([3H]-CP-55,940 displacement); settings: for inhibition at 1 µM: test concentration 1 μM (superscript b), read-out: CB2 binding percent inhibition
T1 construct: expressed in transfected cells; host or cells: SK-N-MC cells, pcDNA3 CB-2 (human), semi-purified membranes
T1 sequence (P34972 whole entry): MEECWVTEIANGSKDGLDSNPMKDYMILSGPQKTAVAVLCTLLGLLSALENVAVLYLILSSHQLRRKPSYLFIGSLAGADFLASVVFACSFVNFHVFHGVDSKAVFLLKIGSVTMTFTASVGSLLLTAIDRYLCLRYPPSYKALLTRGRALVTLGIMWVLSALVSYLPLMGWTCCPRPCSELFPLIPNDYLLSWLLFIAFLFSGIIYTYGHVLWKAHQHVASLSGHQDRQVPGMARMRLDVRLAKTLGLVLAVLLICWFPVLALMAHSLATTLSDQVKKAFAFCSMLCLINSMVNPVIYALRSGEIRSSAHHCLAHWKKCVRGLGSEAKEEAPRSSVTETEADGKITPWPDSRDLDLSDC
Summary of the method: (§1)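 Displacement of 0.2 nM [3H]-CP-55,940 (non-specific: 10 uM WIN 55,212) was run on semi-purified membranes of transfected SK-N-MC cells carrying human CB-1 or CB-2, 90 min, 30° C, pH 7.5. Scintillation counting; IC50 by linear regression, else % inhibition at 0.2, 1 or 10 μM.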

human CB1 receptor [1] = molecular target: T2, human CB1 receptor (Homo sapiens, UniProt P21554); experiment: Binding assay, cannabinoid CB1 receptor ([3H]-CP-55,940 displacement); design: expressed in transfected cells; host or cells: SK-N-MC cells, pcDNA3 CB-1 (human), semi-purified membranes; settings: for inhibition at 1 µM: test concentration 1 μM (superscript b)
T2 sequence (P21554 whole entry): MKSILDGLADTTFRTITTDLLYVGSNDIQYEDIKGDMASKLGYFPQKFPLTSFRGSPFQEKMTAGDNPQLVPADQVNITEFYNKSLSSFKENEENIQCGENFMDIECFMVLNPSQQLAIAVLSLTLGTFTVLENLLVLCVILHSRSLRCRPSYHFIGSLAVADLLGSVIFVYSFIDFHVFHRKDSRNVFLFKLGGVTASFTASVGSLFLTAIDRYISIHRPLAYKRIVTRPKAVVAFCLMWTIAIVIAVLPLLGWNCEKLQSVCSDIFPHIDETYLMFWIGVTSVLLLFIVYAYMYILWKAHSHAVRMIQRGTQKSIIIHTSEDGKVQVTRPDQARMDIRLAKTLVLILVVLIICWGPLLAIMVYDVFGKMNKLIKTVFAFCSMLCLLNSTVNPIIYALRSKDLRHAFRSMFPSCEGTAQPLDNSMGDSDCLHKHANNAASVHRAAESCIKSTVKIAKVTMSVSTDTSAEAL
Summary of the method: as §1

human CB1 receptor [2] = molecular target: T2, human CB1 receptor; experiment: Functional cell-based assay, CB1 receptor mediated change in CRE β-gal expression (adenylate cyclase activity); design: expressed in transfected cells; host or cells: SK-NC cells [sic], pcDNA3-CRE β-gal and pcDNA3 CB-1 (human); settings: for inhibition at 1 µM: test concentration 1 μM, where an EC50 was not obtained, read-out: CB1 functional percent inhibition
Excerpt: Functional Cell-Based Assay for CB1 or CB2 Agonist and Inverse Agonist Effects on Intra-Cellular Adenylate Cyclase Activity
The CB1 and CB2 receptors are G-protein coupled receptors (GPCR), which influence cell function via the Gi-protein. These receptors modulate the activity of intracellular adenylate cyclase, which in turn produces the intracellular signal messenger cyclic-AMP (cAMP).
At baseline, or during non-ligand bound conditions, these receptors are constitutively active and tonically suppress adenylate cyclase activity. The binding of an agonist causes further receptor activation and produces additional suppression of adenylate cyclase activity. The binding of an inverse agonist inhibits the constitutive activity of the receptors and results in an increase in adenylate cyclase activity.
By monitoring intracellular adenylate cyclase activity, the ability of compounds to act as agonists or inverse agonists can be determined.
Test compounds were evaluated in SK-NC cells which, using standard transfection procedures, were stably transfected with human cDNA for pcDNA3-CRE β-gal and pcDNA3 CB-1 (human) or pcDNA3 CB-2 (human). By expressing CRE β-gal, the cells produced β-galactosidase in response to CRE promoter activation by cAMP. Cells expressing CRE β-gal and either the human CB1 or CB2 receptor will produce less β-galactosidase when treated with a CB1/CB2 agonist and will produce more β-galactosidase when treated with a CB1/CB2 inverse agonist.
The cells were grown in 96-well plates under standard cell culture conditions at 37° C. in a 5% CO2 atmosphere. After 3 days, the media was removed and a test compound in media (wherein the media was supplemented with 2 mM L-glutamine, […] sodium pyruvate, 0.1% low fatty acid FBS (fetal bovine serum) and antibiotics) was added to the cell. The plates were incubated for 30 minutes at 37° C. and the plate cells were then treated with forskolin over a 4-6 hour period, then washed and lysed. The β-galactosidase activity was quantitated using commercially available kit reagents (Promega Corp. Madison, Wis.) and a Vmax Plate Reader (Molecular Devices, Inc).
For cells expressing CRE β-gal and the CB1 receptor, CB1 agonists reduced β-galactosidase activity in a dose-dependent manner and CB1 inverse agonists increased β-galactosidase activity in a dose-dependent manner.
The change in β-galactosidase activity was determined by setting a vehicle treated cell's activity value at 100% and expressing the β-galactosidase activity measured in a corresponding compound treated cell as a percent of the vehicle treated cell activity.
The EC50 and IC50 values for compounds tested were calculated by linear regression and were obtained from studies in which varying compound concentrations were used.
The EC50 values for compounds tested were calculated by linear regression and were obtained from studies in which varying compound concentrations were used. Where an EC50 was not obtained, test results are provided as percent inhibition at a test concentration of 1 μM. ^aTest value in IC50; indicates agonist activity.

[3] = read-out: CB1 binding percent inhibition

SMILES | IC50 (human CB-2 receptor) [nM] | IC50 (human CB1 receptor [1]) [nM] | IC50 (human CB1 receptor [2]) [nM] | inhibition at 1 µM (human CB1 receptor [1]; [3]) [%] | inhibition at 1 µM (human CB1 receptor [2]) [%] | further results
C[C@@H](NC(=O)c1nn(Cc2ccccc2)c2c1CSCC2)c1ccccc1 [Cpd 1, 1-benzyl-1,4,6,7-tetrahydro-thiopyrano[4,3-c]pyrazole-3-carboxylic acid [(1R)-1-phenyl-ethyl]-amide] | 62 | 160 | 70 |  |  | 
C[C@H](NS(=O)(=O)/C=C/c1nn(Cc2ccccc2)c2c1CSCC2)c1ccccc1 [Cpd 3, (E)-2-(1-benzyl-1,4,6,7-tetrahydro-thiopyrano[4-3-c]pyrazol-3-yl)-ethenesulfonic acid [(1S)-1-phenyl-ethyl]-amide] |  |  |  | 23 | 17 | inhibition at 1 µM (human CB-2 receptor): 74%
C[C@@H](NC(=O)c1nn(Cc2ccccc2)c2c1CS(=O)(=O)CC2)c1ccccc1 [Cpd 13, 1-benzyl-5,5-dioxo-4,5,6,7-tetrahydro-1H-5λ^6-thiopyrano[4,3-c]pyrazole-3-carboxylic acid [(1R)-1-phenyl-ethyl]-amide] |  |  |  | 38 |  | inhibition at 1 µM (human CB-2 receptor): 55%; EC50 (human CB1 receptor [2]): 7880 nM
CC12CCC(C1)C(C)(C)C2NC(=O)c1nn(Cc2ccccc2)c2c1CSCC2 (stereo not drawn) [Cpd 19, 1-benzyl-1,4,6,7-tetrahydro-thiopyrano[4,3-c]pyrazole-3-carboxylic acid (1,3,3-trimethyl-bicyclo[2.2.1]hept-2-yl)-amide] | 0.7 | 5 | 30 |  |  | 
CC12CCC(C1)C(C)(C)C2NC(=O)c1nn(Cc2ccccc2)c2c1CS(=O)(=O)CC2 (stereo not drawn) [Cpd 20, 1-benzyl-5,5-dioxo-4,5,6,7-tetrahydro-1H-5λ^6-thiopyrano[4,3-c]pyrazole-3-carboxylic acid (1,3,3-trimethyl-bicyclo[2.2.1]hept-2-yl)-amide] | 5 | 22 | 60 |  |  | 
CC12CCC(C1)C(C)(C)C2NC(=O)c1nn(Cc2ccccc2)c2c1C[S+]([O-])CC2 (stereo not drawn) [Cpd 21, 1-benzyl-5-oxo-4,5,6,7-tetrahydro-1H-5λ^4-thiopyrano[4,3-c]pyrazole-3-carboxylic acid (1,3,3-trimethyl-bicyclo[2.2.1]hept-2-yl)-amide] | 56 |  | 6300 | 53 |  | 
CC(NS(=O)(=O)/C=C/c1nn(Cc2ccccc2)c2c1C[S+]([O-])CC2)C1CCCCC1 (stereo not drawn) [Cpd 25, (E)-2-(1-benzyl-5-oxo-4,5,6,7-tetrahydro-1H-5λ^4-thiopyrano[4,3-c]pyrazol-3-yl)-ethenesulfonic acid (1-cyclohexyl-ethyl)amide] |  |  |  |  | 1 | CB1 binding percent inhibition (human CB1 receptor [1]; test concentration 10 μM (superscript c), 10 µM): 0% and 6%
C[C@@H](NC(=O)/C=C/c1nn(Cc2ccccc2)c2c1CSCC2)c1ccccc1 [Cpd 33, (2E)-3-(1-benzyl-1,4,6,7-tetrahydro-thiopyrano[4,3-c]pyrazol-3-yl)-N-[(1R)-1-phenyl-ethyl]-acrylamide] | 6800 |  |  | 35 | 24 | inhibition at 10 µM (human CB1 receptor [1]; test concentration 10 μM (superscript c), read-out: CB1 binding percent inhibition): 9%
